Measured values as given in PubChem BioAssay AID1259408 (Genetic Toxicology Data Bank (GENE-TOX), 2018).
Activity calls are given as the source filed them. No rule for the calls is given here.

Test system: GENE-TOX genotoxicity assays, various organisms and cells
Assay: GENE-TOX mutagenicity studies
[1] = Species/Cell Type: Rodents, Sex: Male, Assay Type: Dominant lethal test, Assay Code: DLT-, Evaluation Type: Evaluation A (Pre-1980)
[2] = Species/Cell Type: Chinese hamster lung (V79) cells, Assay Type: Forward gene mutation at the HPRT or ouabain locus, Assay Code: V79-*, Activation: With metabolic activation, Evaluation Type: Evaluation A (Pre-1980)
[3] = Species/Cell Type: Saccharomyces cerevisiae, Assay Type: Reverse gene mutation, Assay Code: YERT, Evaluation Type: Evaluation A (Pre-1980)
[4] = Species/Cell Type: Nonhuman, Assay Type: Sister-chromatid exchange (SCE) in vitro, Assay Code: SC2+D, Dose Response: With dose response, Evaluation Type: Evaluation B (Post-1980)

Question: Which results are given for `CCN(CC)N=O`?
Answer: mutagenic call (Species/Cell Type: Chinese hamster lung (V79) cells, Assay Type: Forward gene mutation at the HPRT or ouabain locus, Assay Code: V79+, Evaluation Type: Evaluation A (Pre-1980)): active; positive; mutagenic call (Species/Cell Type: Chinese hamster ovary (CHO) cells, Assay Type: Forward gene mutation at the HPRT locus, Assay Code: CHO+*, Activation: With metabolic activation, Evaluation Type: Evaluation B (Post-1980)): active; positive; mutagenic call (Species/Cell Type: Drosophila melanogaster, Assay Type: Sex-linked recessive lethal gene mutation, Assay Code: SRL+, Evaluation Type: Evaluation A (Pre-1980)): active; positive; mutagenic call (Species/Cell Type: Drosophila melanogaster, Sex: Male, Assay Type: Heritable translocation test, chromosome aberrations, Assay Code: DHTT, Evaluation Type: Evaluation A (Pre-1980)): no conclusion; mutagenic call (Species/Cell Type: Escherichia coli polA (W3110 vs P3478), Assay Type: Rec-assay, DNA effects (bacterial DNA repair), Assay Code: RE2+, Evaluation Type: Evaluation A (Pre-1980)): active; positive; mutagenic call (Species/Cell Type: Escherichia coli polA (W3119 vs P3478), Assay Type: Rec-assay, DNA effects (bacterial DNA repair), Assay Code: RE1-, Evaluation Type: Evaluation A (Pre-1980)): inactive; negative; mutagenic call (Species/Cell Type: Fischer rat embryo (RLV/1706) cells, Assay Type: Cell transformation, viral enhanced, Assay Code: CTR+, Evaluation Type: Evaluation A (Pre-1980)): active; positive; mutagenic call (Species/Cell Type: Human diploid fibroblasts, Assay Type: Unscheduled DNA synthesis (UDS) in vitro, DNA effects, Assay Code: UDHT, Evaluation Type: Evaluation A (Pre-1980)): no conclusion; mutagenic call (Species/Cell Type: Human lymphocytes, Assay Type: Sister-chromatid exchange (SCE) in vitro, Assay Code: SCL+D*, Activation: With metabolic activation, Dose Response: With dose response, Evaluation Type: Evaluation B (Post-1980)): active; positive; mutagenic call (Species/Cell Type: Human lymphocytes, Assay Type: Sister-chromatid exchange (SCE) in vitro, Assay Code: SCL-, Evaluation Type: Evaluation A (Pre-1980)): inactive; negative; mutagenic call (Species/Cell Type: Human, Assay Type: Sister-chromatid exchange (SCE) in vitro, Assay Code: SC1+D*, Activation: With metabolic activation, Dose Response: With dose response, Evaluation Type: Evaluation B (Post-1980)): active; positive; mutagenic call (Species/Cell Type: Human, Assay Type: Sister-chromatid exchange (SCE) in vitro, Assay Code: SC1-, Evaluation Type: Evaluation A (Pre-1980)): inactive; negative; mutagenic call (Species/Cell Type: Mammalian polychromatic erythrocytes, Assay Type: Micronucleus test, chromosome aberrations, Assay Code: MNTT, Evaluation Type: Evaluation A (Pre-1980)): no conclusion; mutagenic call (Species/Cell Type: Mouse germ cells, Sex: Male, Assay Type: Unscheduled DNA synthesis (UDS) in vivo, DNA effects, Assay Code: UDT-, Evaluation Type: Evaluation A (Pre-1980)): inactive; negative; mutagenic call (Species/Cell Type: Mouse lymphoma (L5178Y) cells, Assay Type: Forward gene mutation at the thymidine kinase (TK) locus, chromosome aberrations, Assay Code: L51+*, Activation: With metabolic activation, Evaluation Type: Evaluation A (Pre-1980)): active; positive; mutagenic call (Species/Cell Type: Mouse, Sex: Female, Assay Type: Spot test, gene mutation, Assay Code: MST-, Evaluation Type: Evaluation A (Pre-1980)): inactive; negative; mutagenic call (Species/Cell Type: Mouse, Sex: Male, Assay Type: Specific locus test, gene mutation, Assay Code: SLT-, Evaluation Type: Evaluation A (Pre-1980)): inactive; negative; mutagenic call (Species/Cell Type: Neurospora crassa, Assay Type: Forward gene mutation, Assay Code: NEF+, Evaluation Type: Evaluation A (Pre-1980)): active; positive; mutagenic call (Species/Cell Type: Neurospora crassa, Assay Type: Reverse gene mutation, Assay Code: NER+, Evaluation Type: Evaluation A (Pre-1980)): active; positive; mutagenic call (Species/Cell Type: Nonhuman, Assay Type: Chromosome aberrations in vitro, Assay Code: CY&+*, Activation: With metabolic activation, Evaluation Type: Evaluation A (Pre-1980)): active; positive; call (Species/Cell Type: Nonhuman, Assay Type: In vivo carcinogenicity studies, Assay Code: CCG+, Evaluation Type: Evaluation A (Pre-1980)): active; positive; mutagenic call (Species/Cell Type: Nonhuman, Assay Type: Sister-chromatid exchange (SCE) in vitro, Assay Code: SC2+D, Dose Response: With dose response, Evaluation Type: Evaluation A (Pre-1980)): active; positive; mutagenic call (Species/Cell Type: Nonhuman, Assay Type: Sister-chromatid exchange (SCE) in vivo, Assay Code: SC3+, Evaluation Type: Evaluation B (Post-1980)): active; positive; mutagenic call (Species/Cell Type: Nonhuman, Assay Type: Sister-chromatid exchange (SCE) in vivo, Assay Code: SC3+D, Dose Response: With dose response, Evaluation Type: Evaluation A (Pre-1980)): active; positive; mutagenic call (Species/Cell Type: Rat primary hepatocytes, Assay Type: Unscheduled DNA synthesis (UDS) in vitro, DNA effects, Assay Code: UDP+, Evaluation Type: Evaluation A (Pre-1980)): active; positive; mutagenic call [1]: inactive; negative; mutagenic call (Species/Cell Type: Saccharomyces cerevisiae, Assay Type: Forward gene mutation, Assay Code: YEF+*, Activation: With metabolic activation, Evaluation Type: Evaluation A (Pre-1980)): active; positive; mutagenic call (Species/Cell Type: Saccharomyces cerevisiae, Assay Type: Mitotic recombination or gene conversion, Assay Code: YEH+, Evaluation Type: Evaluation A (Pre-1980)): active; positive; mutagenic call (Species/Cell Type: Salmonella typhimurium (one or more of the five standard strains: TA98, TA100, TA1535, TA1537, and TA1538), Assay Type: Histidine reverse gene mutation, Ames assay, Assay Code: SAL+*, Activation: With metabolic activation, Evaluation Type: Evaluation A (Pre-1980)): active; positive; mutagenic call (Species/Cell Type: Salmonella typhimurium, Escherichia coli, Serratia marcesens, Chinese hamster lung (V79) cells, Assay Type: Forward and reverse gene mutation, host-mediated assay, Assay Code: HM1+, Evaluation Type: Evaluation A (Pre-1980)): active; positive; mutagenic call (Species/Cell Type: Syrian hamster embryo (SHE) cells, Assay Type: Cell transformation, clonal assay, Assay Code: CTC+*, Activation: With metabolic activation, Evaluation Type: Evaluation A (Pre-1980)): active; positive

Question: How did the mutagenic call [1] turn out when `CCCCCCCCCC(=O)OCCCN1CCN(C2Cc3ccccc3Sc3ccc(SC)cc32)CC1` (stereo not given) was run?
Answer: inactive; negative

Question: How did the mutagenic call [2] turn out when `Cc1c2ccccc2c(C)c2c1ccc1ccc(F)cc12` was run?
Answer: inactive; negative

Question: For `CC(C)CN(N=O)C(N)=O`, which mutagenic call (Species/Cell Type: Arabidopsis species, Assay Type: Gene mutation, Assay Code: ARM+D, Dose Response: With dose response, Evaluation Type: Evaluation A (Pre-1980)) is on record?
Answer: active; positive

Question: With `C1N2CN3CN1CN(C2)C3` as the compound, how does the mutagenic call (Species/Cell Type: Escherichia coli polA (W3119 vs P3478), Assay Type: Rec-assay, DNA effects (bacterial DNA repair), Assay Code: RE1+, Evaluation Type: Evaluation A (Pre-1980)) read?
Answer: active; positive

Question: Which mutagenic call [3] does the source give for `O=C(COc1ccc(Br)cc1CN1CCCCC1)N/N=C/c1ccccc1O` here?
Answer: no conclusion

Question: With `CN=C=O` as the compound, how does the mutagenic call (Species/Cell Type: Mammalian polychromatic erythrocytes, Assay Type: Micronucleus test, chromosome aberrations, Assay Code: MNT+U, Dose Response: Unconfirmed positive response, Evaluation Type: Evaluation B (Post-1980)) read?
Answer: active; positive

Question: What does the source list for `Clc1cccc(C2CO2)c1` (stereo not given)?
Answer: mutagenic call (Species/Cell Type: Escherichia coli WP2 UVRA, Assay Type: Tryptophan reverse gene mutation, Assay Code: WPU+D, Dose Response: With dose response, Evaluation Type: Evaluation A (Pre-1980)): active; positive; mutagenic call (Species/Cell Type: Salmonella typhimurium (one or more of the five standard strains: TA98, TA100, TA1535, TA1537, and TA1538), Assay Type: Histidine reverse gene mutation, Ames assay, Assay Code: SALT, Evaluation Type: Evaluation A (Pre-1980)): no conclusion

Question: With `Cc1cc2c(C)c3ccccc3c(C)c2c2ccccc12` as the compound, how does the mutagenic call [2] read?
Answer: inactive; negative

Question: Which mutagenic call [4] does the source give for `CCOP(=O)(OCC)Oc1cc(C)nc(C(C)C)n1` here?
Answer: active; positive

Question: How did the mutagenic call [3] turn out when `CCN(CC)Cc1cc(CC(=O)NN)ccc1OC` was run?
Answer: no conclusion

Question: How did the mutagenic call [4] turn out when `Cc1[nH]cnc1CSCCN(N=O)C(=NC#N)N(C)N=O` was run?
Answer: active; positive

Question: `OCC(Br)CBr` (stereo not given) was tested. Which mutagenic call (Species/Cell Type: Salmonella typhimurium (one or more of the five standard strains: TA98, TA100, TA1535, TA1537, and TA1538), Assay Type: Histidine reverse gene mutation, Ames assay, Assay Code: SAL+, Evaluation Type: Evaluation A (Pre-1980)) did it give?
Answer: active; positive

Question: How did the mutagenic call (Species/Cell Type: Human, Assay Type: Sister-chromatid exchange (SCE) in vitro, Assay Code: SC1+D, Dose Response: With dose response, Evaluation Type: Evaluation B (Post-1980)) turn out when `CCC1(c2ccc(O)cc2)OC1(CC)c1ccc(O)cc1` (stereo not given) was run?
Answer: active; positive

Question: Which mutagenic call (Species/Cell Type: Nonhuman, Assay Type: Sister-chromatid exchange (SCE) in vitro, Assay Code: SC2+, Evaluation Type: Evaluation B (Post-1980)) does the source give for `CCCCOc1ccc(CC(=O)NOS(=O)(=O)O)cc1` here?
Answer: active; positive

Question: Which results are given for `CCCC(C)(COC(N)=O)COC(N)=O`?
Answer: mutagenic call (Species/Cell Type: Drosophila melanogaster, Assay Type: Aneuploidy, partial sex chromosome loss, chromosome aberrations, Assay Code: DAPT, Evaluation Type: Evaluation A (Pre-1980)): no conclusion; mutagenic call (Species/Cell Type: Drosophila melanogaster, Assay Type: Aneuploidy, whole sex chromosome loss, chromosome aberrations, Assay Code: DAC-M, Evaluation Type: Evaluation A (Pre-1980)): inactive; negative; mutagenic call (Species/Cell Type: Drosophila melanogaster, Assay Type: Sex-linked recessive lethal gene mutation, Assay Code: SRL-, Evaluation Type: Evaluation A (Pre-1980)): inactive; negative

Question: With `COc1ccc2c(c1)CC[C@@H]1[C@@H]2CC[C@]2(C)[C@@H](O)[C@H](O)C[C@@H]12` as the compound, how does the mutagenic call (Species/Cell Type: Rat, Sex: Male, Assay Type: Sperm morphology, Assay Code: SPA+, Evaluation Type: Evaluation A (Pre-1980)) read?
Answer: active; positive
